From ChEMBL document CHEMBL5518240 (J Med Chem, 2024) come the findings set out here.

SMILES strings stand for the structures. pIC50, pKd: −log10 of the molar value. Calls of active or inactive are those of the source. The calls are words filed in the database; no cut-off is given here.

Assay [1] deals with VCaP. The experiment in a line: Reduction in c-Myc gene expression in AR positive human VCaP cells assessed as reduction in mRNA level at 100 nM measured after 6 hrs by qRT-PCT analysis relative to control. The assay is classed as functional, cell-based.
The subject of assay [2] is LNCaP. The assay can be described thus: Antiproliferative activity against AR positive human LNCaP cells assessed inhibition of cell growth measured after 4 days by CellTiter-Glo Luminescent cell viability assay. To be noted: 96 h. The assay is classed as functional, cell-based.
In assay [3] the test system is CWR22R. The experiment in a line: Reduction in c-Myc gene expression in AR positive human 22Rv1 cells assessed as reduction in mRNA level at 100 nM measured after 6 hrs by qRT-PCT analysis relative to control. The assay is classed as functional, cell-based.
For assay [4], the system named is VCaP. The experiment in a line: Antiproliferative activity against AR positive human VCaP cells assessed inhibition of cell growth measured after 4 days by CellTiter-Glo Luminescent cell viability assay. It is filed as functional, cell-based. The conditions noted are these: 96 h.
Assay [5] relates to VCaP. The experiment in a line: Reduction in AR gene expression in AR positive human VCaP cells assessed as reduction in mRNA level at 100 nM measured after 6 hrs by qRT-PCT analysis relative to control. The assay is classed as functional, cell-based.
Assay [6] concerns LNCaP. The assay can be described thus: Reduction in AR gene expression in AR positive human LNCaP cells assessed as reduction in mRNA level at 100 nM measured after 6 hrs by qRT-PCT analysis relative to control. It is filed as functional, cell-based.
The test system of assay [7] is CWR22R. The assay can be described thus: Antiproliferative activity against AR positive human 22Rv1 cells assessed inhibition of cell growth measured after 4 days by CellTiter-Glo Luminescent cell viability assay. The assay is classed as functional, cell-based. The conditions noted are these: 22Rv1, 96 h.
Assay [8] deals with LNCaP. The experiment in a line: Reduction in c-Myc gene expression in AR positive human LNCaP cells assessed as reduction in mRNA level at 100 nM measured after 6 hrs by qRT-PCT analysis relative to control. It is filed as functional, cell-based.
Assay [9] has as its system CWR22R. The assay can be described thus: Reduction in AR gene expression in AR positive human 22Rv1 cells assessed as reduction in mRNA level at 100 nM measured after 6 hrs by qRT-PCT analysis relative to control. The assay is classed as functional, cell-based.
Assay [10] has as its system LNCaP. The experiment in a line: Reduction in AR gene expression in AR positive human LNCaP cells assessed as reduction in mRNA level at 1000 nM measured after 6 hrs by qRT-PCT analysis. The assay is classed as functional, cell-based.
In assay [11] the test system is CWR22R. The experiment in a line: Reduction in c-Myc gene expression in AR positive human 22Rv1 cells assessed as reduction in mRNA level at 1000 nM measured after 6 hrs by qRT-PCT analysis. It is filed as functional, cell-based.
Assay [12] relates to VCaP. The experiment in a line: Antitumor activity against human VCaP cells xenografted in CB17 SCID mouse model assessed as tumor growth inhibition at 20 mg/kg, po qd scheduled 5 days in a week measured on day 63. The conditions noted are these: 1512 h, time 63 day, read-out: TGI. The assay is classed as functional.
Assay [13] relates to LNCaP. The experiment in a line: Reduction in KLK3 gene expression in AR positive human LNCaP cells assessed as reduction in mRNA level at 1000 nM measured after 6 hrs by qRT-PCT analysis. The assay is classed as functional, cell-based.
The target in assay [14] is Bromodomain-containing protein 4 (Homo sapiens, UniProt O60885). The experiment in a line: Binding affinity to BRD4 (unknown origin) by SPR assay.
Assay [15] has as its system CWR22R. The assay can be described thus: Reduction in AR gene expression in AR positive human 22Rv1 cells assessed as reduction in mRNA level at 1000 nM measured after 6 hrs by qRT-PCT analysis. The assay is classed as functional, cell-based.
Assay [16] concerns LNCaP. The experiment in a line: Reduction in c-Myc gene expression in AR positive human LNCaP cells assessed as reduction in mRNA level at 1000 nM measured after 6 hrs by qRT-PCT analysis. The assay is classed as functional, cell-based.
The subject of assay [17] is VCaP. The assay can be described thus: Reduction in c-Myc gene expression in AR positive human VCaP cells assessed as reduction in mRNA level at 1000 nM measured after 6 hrs by qRT-PCT analysis. It is filed as functional, cell-based.
The test system of assay [18] is VCaP. The assay can be described thus: Reduction in KLK3 gene expression in AR positive human VCaP cells assessed as reduction in mRNA level at 1000 nM measured after 6 hrs by qRT-PCT analysis. The assay is classed as functional, cell-based.
Assay [19] concerns VCaP. The experiment in a line: Reduction in AR gene expression in AR positive human VCaP cells assessed as reduction in mRNA level at 1000 nM measured after 6 hrs by qRT-PCT analysis. It is filed as functional, cell-based.
Assay [20] concerns CWR22R. The assay can be described thus: Reduction in KLK3 gene expression in AR positive human 22Rv1 cells assessed as reduction in mRNA level at 1000 nM measured after 6 hrs by qRT-PCT analysis. The assay is classed as functional, cell-based.
The subject of assay [21] is VCaP. The assay can be described thus: Antitumor activity against human VCaP cells xenografted in CB17 SCID mouse model assessed as tumor growth inhibition at 30 mg/kg, po qd scheduled 5 days in a week measured on day 63. The conditions noted are these: 1512 h, time 63 day, read-out: TGI. The assay is classed as functional.
In assay [22] the target is T1, Protein cereblon/Histone acetyltransferase p300 (Homo sapiens, UniProt Q09472+Q96SW2). The experiment in a line: PROTAC activity at p300/CRBN in human VCaP cells assessed as maximal protein degradation at 1 uM incubated for 4 hrs by Western blot analysis relative to control. The assay is classed as cell-based.
Assay [23] has as its target T2, Protein cereblon/CREB-binding protein (Homo sapiens, UniProt Q92793+Q96SW2). The assay can be described thus: PROTAC activity at CBP/CRBN in human VCaP cells assessed as protein degradation incubated for 4 hrs by Western blot analysis. The assay is classed as cell-based.
The target in assay [24] is T1, Protein cereblon/Histone acetyltransferase p300. The experiment in a line: Potency index, ratio of CPBD-409 DC50 to test compound DC50 for PROTAC activity at p300/CRBN in human VCaP cells assessed as protein degradation incubated for 4 hrs by Western blot analysis. The assay is classed as cell-based.
For assay [25] the target is unchanged. The assay can be described thus: PROTAC activity at p300/CRBN in human VCaP cells assessed as protein degradation incubated for 4 hrs by Western blot analysis. The assay is classed as cell-based.
In assay [26] the target is T2, Protein cereblon/CREB-binding protein. The experiment in a line: PROTAC activity at CBP/CRBN in human VCaP cells assessed as maximal protein degradation at 1 uM incubated for 4 hrs by Western blot analysis relative to control. It is filed as cell-based.
Target sequence in this assay (Q92793 2-2442 limits assumed): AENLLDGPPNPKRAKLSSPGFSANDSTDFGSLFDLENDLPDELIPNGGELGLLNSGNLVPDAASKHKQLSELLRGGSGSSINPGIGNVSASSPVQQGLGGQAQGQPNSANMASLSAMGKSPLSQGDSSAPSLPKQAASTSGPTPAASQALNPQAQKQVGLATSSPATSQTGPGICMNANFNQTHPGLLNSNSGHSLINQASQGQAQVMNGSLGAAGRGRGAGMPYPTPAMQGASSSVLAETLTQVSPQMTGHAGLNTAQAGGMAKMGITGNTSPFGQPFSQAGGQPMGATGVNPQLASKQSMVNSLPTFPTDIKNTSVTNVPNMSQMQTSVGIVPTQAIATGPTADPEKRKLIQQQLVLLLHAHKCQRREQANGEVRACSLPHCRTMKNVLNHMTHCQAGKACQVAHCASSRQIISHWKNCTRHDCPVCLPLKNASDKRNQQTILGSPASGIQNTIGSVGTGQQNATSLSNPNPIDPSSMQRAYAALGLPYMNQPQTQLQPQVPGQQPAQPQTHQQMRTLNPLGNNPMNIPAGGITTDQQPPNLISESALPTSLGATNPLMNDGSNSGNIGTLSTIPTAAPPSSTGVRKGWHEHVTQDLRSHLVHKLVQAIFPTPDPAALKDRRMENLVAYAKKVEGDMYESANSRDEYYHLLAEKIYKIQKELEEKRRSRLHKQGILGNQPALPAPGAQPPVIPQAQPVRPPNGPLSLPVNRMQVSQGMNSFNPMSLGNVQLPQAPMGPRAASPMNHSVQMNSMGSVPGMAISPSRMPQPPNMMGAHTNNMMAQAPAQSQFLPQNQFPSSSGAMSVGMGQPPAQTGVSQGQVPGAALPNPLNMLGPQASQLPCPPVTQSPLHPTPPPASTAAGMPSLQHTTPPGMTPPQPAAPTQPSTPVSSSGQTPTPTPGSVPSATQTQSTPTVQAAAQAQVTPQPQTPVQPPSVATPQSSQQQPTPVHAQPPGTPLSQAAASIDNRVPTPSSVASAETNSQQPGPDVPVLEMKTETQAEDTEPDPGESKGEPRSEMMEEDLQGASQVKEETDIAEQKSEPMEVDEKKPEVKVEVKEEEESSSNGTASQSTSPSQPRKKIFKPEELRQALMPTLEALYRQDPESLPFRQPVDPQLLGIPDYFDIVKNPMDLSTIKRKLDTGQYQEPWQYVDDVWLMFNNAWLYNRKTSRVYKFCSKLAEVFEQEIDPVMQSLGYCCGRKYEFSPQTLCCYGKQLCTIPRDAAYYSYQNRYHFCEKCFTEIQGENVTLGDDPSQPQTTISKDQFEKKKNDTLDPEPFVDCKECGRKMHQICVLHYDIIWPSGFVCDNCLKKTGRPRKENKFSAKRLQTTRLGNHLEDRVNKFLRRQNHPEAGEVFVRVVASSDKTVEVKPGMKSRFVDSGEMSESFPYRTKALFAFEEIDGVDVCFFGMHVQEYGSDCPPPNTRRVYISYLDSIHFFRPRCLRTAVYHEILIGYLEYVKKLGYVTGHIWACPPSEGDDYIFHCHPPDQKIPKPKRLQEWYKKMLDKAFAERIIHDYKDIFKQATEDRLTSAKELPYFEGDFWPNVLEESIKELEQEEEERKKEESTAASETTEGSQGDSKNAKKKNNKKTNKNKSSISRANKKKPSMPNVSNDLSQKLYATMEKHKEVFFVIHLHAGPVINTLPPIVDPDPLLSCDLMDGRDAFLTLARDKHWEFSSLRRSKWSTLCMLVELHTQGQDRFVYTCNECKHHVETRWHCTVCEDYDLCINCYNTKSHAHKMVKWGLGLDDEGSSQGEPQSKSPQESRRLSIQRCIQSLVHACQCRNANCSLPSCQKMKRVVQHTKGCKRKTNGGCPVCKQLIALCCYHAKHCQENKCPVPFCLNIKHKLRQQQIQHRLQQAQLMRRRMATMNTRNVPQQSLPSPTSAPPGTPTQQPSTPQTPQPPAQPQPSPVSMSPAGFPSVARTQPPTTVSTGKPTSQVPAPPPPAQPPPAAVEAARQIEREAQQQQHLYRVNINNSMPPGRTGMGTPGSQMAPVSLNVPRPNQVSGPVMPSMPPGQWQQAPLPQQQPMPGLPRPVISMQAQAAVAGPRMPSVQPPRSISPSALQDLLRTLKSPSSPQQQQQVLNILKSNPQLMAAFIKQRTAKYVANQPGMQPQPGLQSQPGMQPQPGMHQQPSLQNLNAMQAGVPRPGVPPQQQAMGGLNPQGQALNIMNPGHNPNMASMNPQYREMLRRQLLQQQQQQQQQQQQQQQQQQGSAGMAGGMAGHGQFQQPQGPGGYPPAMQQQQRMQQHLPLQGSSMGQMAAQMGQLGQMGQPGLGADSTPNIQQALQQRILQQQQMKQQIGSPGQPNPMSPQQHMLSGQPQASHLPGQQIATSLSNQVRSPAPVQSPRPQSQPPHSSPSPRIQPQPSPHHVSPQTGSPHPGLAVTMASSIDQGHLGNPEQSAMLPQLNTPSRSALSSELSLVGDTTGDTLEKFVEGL
Target sequence in this assay (Q96SW2 whole entry partner): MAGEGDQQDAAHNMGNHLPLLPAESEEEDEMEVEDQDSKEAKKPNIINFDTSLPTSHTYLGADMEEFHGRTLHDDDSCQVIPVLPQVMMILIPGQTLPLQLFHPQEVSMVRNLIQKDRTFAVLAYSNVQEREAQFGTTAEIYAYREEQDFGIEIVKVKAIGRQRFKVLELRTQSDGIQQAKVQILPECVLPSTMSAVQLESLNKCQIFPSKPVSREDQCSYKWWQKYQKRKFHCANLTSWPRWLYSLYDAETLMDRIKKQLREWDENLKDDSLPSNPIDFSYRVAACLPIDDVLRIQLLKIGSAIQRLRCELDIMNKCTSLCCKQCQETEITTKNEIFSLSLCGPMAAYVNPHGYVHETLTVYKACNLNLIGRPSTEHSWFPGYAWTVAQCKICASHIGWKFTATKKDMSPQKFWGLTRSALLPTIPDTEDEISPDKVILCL
The target is the same in assay [27]. The assay can be described thus: Potency index, ratio of […] DC50 to test compound DC50 for PROTAC activity at CBP/CRBN in human VCaP cells assessed as protein degradation incubated for 4 hrs by Western blot analysis. The assay is classed as cell-based.
Target sequence in this assay (Q92793 2-2442 limits assumed): as the sequence (Q92793 2-2442 limits assumed) above
Target sequence in this assay (Q96SW2 whole entry partner): as the sequence (Q96SW2 whole entry partner) above

Consider `N#Cc1ccc(O[C@H]2CC[C@H](NC(=O)c3ccc(N4CCC(CN5CCN(c6cc7c(cc6F)C(=O)N(C6CCC(=O)NC6=O)C7=O)CC5)CC4)nn3)CC2)cc1Cl` (some centres not stated) [BAVDEGALUTAMIDE], for which the result in the assay with VCaP [1] and with VCaP [5] was Active. Also, the pIC50 is 6.91 with LNCaP [2], 6.66 with VCaP [4] and 6.50 in the assay on CWR22R [7]. Besides, the outcome in the assay with CWR22R [3], with LNCaP [6], in the assay with LNCaP [8] and in the assay with CWR22R [9] was inactive.

As to `CO[C@H]1CC[C@H](n2c([C@@H]3CCCC(=O)N3c3ccc(F)c(F)c3)nc3cc(-c4c(C)noc4C)ccc32)CC1` [INOBRODIB], the outcome in the assay with LNCaP [10], in the assay with CWR22R [11], in the assay with LNCaP [13], in the assay with CWR22R [15], in the assay on LNCaP [16] and in the assay on VCaP [17] was Active. Besides, the result in the assay on VCaP [18], with VCaP [19] and with CWR22R [20] was Active. Further, in the assay on VCaP [12], the inhibition in vivo at 20 mg/kg amounted to 42%. The figures for the pIC50 in the assay with LNCaP [2], in the assay on VCaP [4] and in the assay with CWR22R [7] were 6.39, 7.27 and 6.74, respectively. Further, the negative logarithm of the Kd (pKd) in [14] was 6.65.

`CC(=O)N1CCc2c(c(N3CCCc4cc(-c5cnn(C)c5)c(C(F)F)cc43)nn2C2CCOCC2)C1`: the outcome in the assay with LNCaP [10], with CWR22R [11], with LNCaP [13], with CWR22R [15], in the assay with LNCaP [16] and with VCaP [17] was Active. Also, the result in the assay on VCaP [18], with VCaP [19] and in the assay on CWR22R [20] was Active. The pIC50 was 5.15 with LNCaP [2], 6.67 with VCaP [4] and under 6.00 with CWR22R [7]. Besides, the inhibition in vivo at 30 mg/kg in the assay with VCaP [21] turned out to be 46%.

For `CC(=O)N1CCc2c(c(N3CCCc4cc(-c5cnn(C)c5)c(C(F)F)cc43)nn2[C@H]2CC[C@H](CN3CCN(c4cc5c(cc4F)C(=O)N(C4CCC(=O)NC4=O)C5=O)CC3)CC2)C1` (some centres not stated), the Emax in assay [22] and in [26] was 94% throughout. Moreover, the DC50 in assay [23] and in [25] was 1.2 nM in each case. Moreover, the Ratio in assay [24] and in assay [27] was 4 throughout.
